This is an account of results in ChEMBL document CHEMBL1201862, “PubChem BioAssay data set” (2004).

Holding throughout (experiment): NCI tumour cell line growth inhibition, 48 h
Test [1] deals with COLO 205.
The test system of test [2] is SNB-75.
Test [3] relates to MDA-N.
For test [4], the system named is OVCAR-4.
In test [5] the test system is SF-268.
Test [6] concerns U-251.
The subject of test [7] is SK-MEL-5.
Test [8] concerns SF-295.
Test [9] concerns CCRF-CEM.
For test [10], the system named is UACC-62.
Test [11] deals with RXF 393.
For test [12], the system named is MCF7.
The subject of test [13] is SW-620.
Test [14] relates to HCT-15.
In test [15] the test system is NCI-H460.
Test [16] relates to HCC 2998.
Test [17] concerns MDA-MB-231.
Test [18] deals with HOP-62.
Test [19] deals with SR.

SMILES strings stand for the structures.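 Dose response: 5 concentrations. Exposure: 48 h. Format: 96-well plates. Endpoint: linear interpolation; highest concentration if not reached. The concentration for 50% growth inhibition is given as GI50.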 The source made the active and inactive calls. No stated cut-off is given here; in the data, active = GI50 up to about 1.1 µM and inactive = higher.

With `N=C(N)c1ccc2oc3ccc(C(=N)N)cc3c(=O)c2c1`, the GI50 in test [1], in test [2], in [3], in test [4], in [5] and in test [6] was > 100 µM (inactive) each time. Besides, the GI50 is > 100 µM (inactive) in [7]; > 100 µM (inactive) in test [8]; > 100 µM (inactive) in [9]; > 100 µM (inactive) in test [10]; > 100 µM (inactive) in [11]; 60.4 µM (inactive) in test [12]. Also, the GI50 in [13] was > 100 µM (inactive); in test [14] it was greater than 100 µM; in [15], > 100 µM (inactive); in test [16] it was > 100 µM (inactive); in test [17], > 100 µM (inactive).
In the case of `Cn1c2c(c3ccccc3c1=O)C(=O)c1ccccc1-2`, the GI50 in test [1] is 20 µM (inactive); in test [2] it was 77.6 µM (inactive); in test [3], > 100 µM (inactive); in [18], 18.9 µM (inactive); in test [4] it was 29.9 µM (inactive); in test [5], 51.8 µM (inactive). In addition, the GI50 in test [6] was 35.3 µM (inactive); in test [19], 5.2 µM (inactive); in [7], 29.9 µM (inactive); in [8] it was > 100 µM (inactive); in test [9] it was > 100 µM (inactive); in test [10], 59 µM (inactive). The GI50 in test [12] was 72.9 µM (inactive); in [13] it was > 100 µM (inactive); in test [14], 9.79 µM; in test [17], 43.4 µM (inactive).
For `CC(=O)C1=C(C)N2C(=NC3=C(CCc4ccccc43)C2c2cccc(Br)c2)S1` (centres undefined), the GI50 in test [1] is 88.1 µM (inactive); in [2], > 100 µM (inactive); in test [3] it was > 100 µM (inactive); in test [18] it was > 100 µM (inactive); in [4], > 100 µM (inactive); in test [5], > 100 µM (inactive). Further, the GI50 in test [6] is > 100 µM (inactive); in test [7] it was 41.3 µM (inactive); in [8], > 100 µM (inactive); in test [9], 69.7 µM (inactive); in [10] it was 68.2 µM (inactive); in test [11], > 100 µM (inactive). In addition, the GI50 in [12] is > 100 µM (inactive); in test [13], > 100 µM (inactive); in test [14], 74.8 µM; in test [16] it was 72.9 µM (inactive); in [17], > 100 µM (inactive).
Consider `CC(=O)/C(=C/NC(=S)c1ccncc1)C(=O)Nc1ccccc1C`, for which the GI50 in test [1], in [2], in test [3], in [18], in test [4] and in test [5] was > 100 µM (inactive) in each case. For the same compound, the GI50 in [6], in test [7], in [8], in [10], in test [11] and in test [12] was > 100 µM (inactive) throughout. For the same compound, the GI50 in test [13] is > 100 µM (inactive); in [14] it was greater than 100 µM; in [15] it was > 100 µM (inactive); in test [16], > 100 µM (inactive); in [17], > 100 µM (inactive).
For `Nc1nc(N)c2nn(-c3ccc(C(=O)O)cc3)nc2n1`, the GI50 in test [1], in [2], in test [3], in test [18], in test [4] and in test [5] was > 100 µM (inactive) in each case. The GI50 in test [6], in test [7], in test [8], in test [9], in [10] and in test [11] was > 100 µM (inactive) in each case. Also, the GI50 in test [12] was > 100 µM (inactive); in test [13], > 100 µM (inactive); in test [14], greater than 100 µM; in test [15] it was > 100 µM (inactive); in test [16], > 100 µM (inactive); in [17] it was > 100 µM (inactive).
`CCCCCCCCCCCCOP(=O)(O)OP(=O)(O)OCC1OC(n2cc(C)c(=O)[nH]c2=O)CC1O` (centres undefined): the GI50 in test [1], in [2], in [3], in [18], in test [4] and in test [5] was > 100 µM (inactive) throughout. Also, the GI50 in test [6], in [7], in [8], in test [9], in test [11] and in test [12] was > 100 µM (inactive) each time. Further, the GI50 is > 100 µM (inactive) in [13]; greater than 100 µM in test [14]; > 100 µM (inactive) in test [15]; > 100 µM (inactive) in test [16]; > 100 µM (inactive) in test [17].
In the case of `C=C(C)CC1=C(C(=S)NCCO[Si](C)(C)C(C)(C)C)C(OCC)(OCC)C1=O`, the GI50 is 22.3 µM (inactive) in test [1]; 14.7 µM (inactive) in test [2]; 19.3 µM (inactive) in [3]; 17.9 µM (inactive) in test [18]; 12.9 µM (inactive) in test [4]; 19.1 µM (inactive) in test [5]. In addition, the GI50 in [6] is 19.9 µM (inactive); in test [7], 15.2 µM (inactive); in [8], 17.6 µM (inactive); in test [9], > 100 µM (inactive); in [10], 17.7 µM (inactive); in test [11], 13.6 µM (inactive). Also, the GI50 in test [12] is 9.66 µM (inactive); in [13] it was 18.4 µM (inactive); in test [14] it was 8.93 µM; in test [17], 26.4 µM (inactive).
Regarding `CC(C)(O)C1CC(=O)C(C)(C2C(O)CC3(C)C4CC=C5C(CCC(O)C5(C)C)C4(C)C(=O)CC23C)O1` (centres undefined), the GI50 is > 100 µM (inactive) in [1]; 42.2 µM (inactive) in test [2]; > 100 µM (inactive) in test [3]; > 100 µM (inactive) in [18]; > 100 µM (inactive) in test [4]; > 100 µM (inactive) in test [5]. For the same compound, the GI50 in [6], in test [7], in test [8], in test [10], in [11] and in test [12] was > 100 µM (inactive) in each case. Also, the GI50 is > 100 µM (inactive) in test [13]; greater than 100 µM in [14]; > 100 µM (inactive) in test [15]; > 100 µM (inactive) in [16]; > 100 µM (inactive) in test [17].
With `CC1(C)SC2C(NC(=O)C(C(=O)O)c3ccccc3)C(=O)N2C1C(=O)O` (centres undefined), the GI50 is > 100 µM (inactive) in [1]; 92 µM (inactive) in test [2]; > 100 µM (inactive) in test [3]; > 100 µM (inactive) in test [18]; > 100 µM (inactive) in test [5]; > 100 µM (inactive) in test [6]. Besides, the GI50 in test [7], in test [8], in [9], in test [10], in [11] and in [12] was > 100 µM (inactive) each time. Further, the GI50 in test [13] was > 100 µM (inactive); in [14], greater than 100 µM; in test [17], > 100 µM (inactive).
In the case of `CC(=O)OCC1OC(Oc2cc(C)c(O)cc2C/C=C(\C)CC/C=C(\C)CC(=O)CC(C)C)C(O)C(OC(C)=O)C1OC(C)=O` (centres undefined), the GI50 in [1] was 10.2 µM (inactive); in [2] it was > 50 µM (inactive); in test [3], 18 µM (inactive); in test [18] it was 11.4 µM (inactive); in [4], 19.6 µM (inactive); in test [5] it was 21.2 µM (inactive). The GI50 in [6] was 13.6 µM (inactive); in [7], 8.13 µM (inactive); in test [8], 15.1 µM (inactive); in test [9], 9.82 µM (inactive); in test [10], 13 µM (inactive); in [11], 9.77 µM (inactive). The GI50 in [12] is 12.8 µM (inactive); in test [13], 11 µM (inactive); in test [14] it was 14.3 µM; in [15] it was 13.7 µM (inactive); in [16] it was 10.7 µM (inactive); in test [17], 11.2 µM (inactive).
Regarding `O=[N+]([O-])c1cc(-c2nnc(C34CC5CC(CC(C5)C3)C4)o2)cc([N+](=O)[O-])c1`, the GI50 in test [1] is 17.9 µM (inactive); in test [2], 74.6 µM (inactive); in test [3] it was 24.4 µM (inactive); in test [18], 59.4 µM (inactive); in [4], > 100 µM (inactive); in [5], 86.1 µM (inactive). Moreover, the GI50 was 45.5 µM (inactive) in test [6]; > 100 µM (inactive) in test [19]; 14.1 µM (inactive) in [7]; > 100 µM (inactive) in [8]; > 100 µM (inactive) in test [9]; 86.9 µM (inactive) in test [10]. Besides, the GI50 was > 100 µM (inactive) in [11]; 15.4 µM (inactive) in [13]; 21.1 µM in test [14]; 32.4 µM (inactive) in [15]; 70.5 µM (inactive) in [16]; 39.2 µM (inactive) in test [17].
As for `CN(C)c1ccc(C=c2c3ccccc3n3c2cc(-c2ccc(Cl)cc2)[n+]3C)cc1`, the GI50 was 0.0705 µM (active) in test [1]; 0.307 µM (active) in test [2]; 0.327 µM (active) in test [3]; 0.406 µM (active) in test [18]; 0.748 µM (active) in [4]; 0.473 µM (active) in test [5]. The GI50 is 0.0269 µM (active) in test [6]; 0.167 µM (active) in test [7]; 0.501 µM (active) in test [8]; 0.0649 µM (active) in test [9]; 0.291 µM (active) in test [10]; 0.822 µM (active) in [11]. The GI50 in [12] was 0.0953 µM (active); in [13], 0.242 µM (active); in test [14] it was 1.47 µM; in [15] it was 0.263 µM (active); in test [16], 0.603 µM (active); in [17] it was 0.217 µM (active).
